# In patent publication US20090022821A1, “COMPOSITIONS FROM WAX MYRTLE FOR THE TREATMENT OF CANCER, CARDIOVASCULAR AND INFLAMMATORY DISEASES” (priority 2007, published 2009):
# Tests used:
# [1] = system: ET-1-induced [Ca++] flux in rat aortic smooth muscle cells A7r5; conditions: reference (23), cited from earlier work
# [2] = system: Aortic Smooth Muscle Cells (A7r5); test: Methylene Blue Cell Proliferation assay, Aortic Smooth Muscle Cells (A7r5); type: cell-based, rat; conditions: 3 days, methylene blue staining, serum free medium, FIG. 3
# Description: Inhibition of Proliferation of Aortic Smooth Muscle Cells (A7r5) by wax myrtle extract: The Methylene Blue Cell Proliferation assay assess growth inhibition in a cell-based proliferation assay using protein staining as an estimate of relative cell number. For assessment of cell-based potency, A7r5 (20,000 cells/well) were plated in 96-well plates in the growth media. After 24 h, cells were exposed to compounds at different concentrations. A final concentration of 0.2% DMSO was added to the growth media to keep the compounds in solution. After 3 days, relative cell numbers were estimated using methylene blue staining. The absorbance at 620 nm was read in a microplate reader. Data were analyzed using curve-fitting macros written for Microsoft Excel. Concentrations with IC50 were interpolated using the equation: y=Vmax×[1−(x^n/(K^n+x^n))], where “K” is equal to IC50.
# [3] = target: T1, ET receptor, rat aortic smooth muscle cells (Rattus norvegicus, UniProt P26684); conditions: reference (23), cited from earlier work
# T1 construct: endogenous in cells; host or cells: rat aortic smooth muscle cells
# T1 sequence (P26684 21-426): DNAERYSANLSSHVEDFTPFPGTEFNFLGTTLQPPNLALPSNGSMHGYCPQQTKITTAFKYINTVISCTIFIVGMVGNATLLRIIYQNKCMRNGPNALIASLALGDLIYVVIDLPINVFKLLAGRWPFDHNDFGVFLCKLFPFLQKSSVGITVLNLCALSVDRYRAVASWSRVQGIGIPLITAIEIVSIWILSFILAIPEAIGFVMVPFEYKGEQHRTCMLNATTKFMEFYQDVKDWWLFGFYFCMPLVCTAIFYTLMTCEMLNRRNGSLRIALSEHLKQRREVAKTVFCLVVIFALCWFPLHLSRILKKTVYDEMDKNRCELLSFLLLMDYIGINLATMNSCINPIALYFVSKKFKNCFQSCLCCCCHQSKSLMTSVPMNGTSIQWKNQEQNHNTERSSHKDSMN
# [4] = system: Aortic Smooth Muscle Cells (A7r5); test: Induction of apoptosis by Cell Death ELISA (cytoplasmic histone-DNA fragments) in A7r5 cells; type: cell-based, rat; conditions: 24 h treatment, serum free medium, FIG. 4
# Description: Induction of Apoptosis in Aortic Smooth Muscle Cells (A7r5) by wax myrtle extract and myriceric acid,: Quantitation of apoptotic cell death was determined by Cell Death ELISA (Roche Biochemicals) that measures cytoplasmic histone-DNAfragments produced during apoptosis. Briefly, A7r5 cells (5×10^3/well)were grown in 96-well plates and treated, in triplicates, for 24 h with the indicated doses of wax myrtle extract and myriceric acid A. After treatment, the 96-well plates were centrifuged (200×g) for 10 min. The supernatant was discarded, lysis buffer was added, and samples were incubated at room temperature. Lysates were transferred to reaction wells and incubated with anti-histone biotin and anti-DNA peroxidase antibodies and incubated at room temperature for 2 h. After three washes, the peroxidase substrate was added to each well, and the plates were read at 405 nm after 15-min incubation. The enrichment of histone-DNAfragments treated cells is expressed as absorbance at 405 nm.
substance,measurement,setting,value
Myriceric acid A,IC50,"[1]; repeated as I50 for block of ET signaling pathway, read-out: IC50, inhibition of ET-1-induced [Ca++] flux",11 nM
same,"IC50, inhibition of ET-1-induced [Ca++] flux",[1],0.0075 µg/mL
same,"estimated IC50, growth inhibition of A7r5",[2],0.87±0.30 […]μg/ml
same,"Ki, binding of radiolabeled ET to rat aortic smooth muscle cells",[3],0.04 µg/mL
same,Ki,"[3]; read-out: Ki, binding of radiolabeled ET to rat aortic smooth muscle cells",66 nM
same,"apoptosis, enrichment of histone-DNA fragments (absorbance at 405 nm)",[4],dose-dependent apoptosis
